Experimental data as given in US20260042764A1, “COMPOSITIONS AND METHODS FOR INHIBITION OF KRAS” (TheRas, Inc., priority 2022, published 2026).

Tests used:
[1] = target: T1, Avi-KRAS G12D (1-169) GppNHp/RAF1 RBD-3xFLAG (52-151) (Homo sapiens, UniProt P01116, G12D); experiment: Raf1-KRAS G12D-GppNHP disruption HTRF assay (Biological Example 1); assay type: binding
T1 construct: Avi-KRAS G12D (1-169)
In short: (§1)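 Compounds were tested for disruption of KRAS–RAF1 RBD binding by HTRF in 50 mM Tris pH 7.5, 100 mM NaCl, 5 mM MgCl2, 0.1% BSA, 0.01% Tween, 10% DMSO. Protein mix was incubated 1 h at room temperature with shaking, then detection reagents added for another 1 h. Activity expressed as percent of DMSO control.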

[2] = target: T2, Avi-KRAS G12R (1-169) GppNHp/RAF1 RBD-3xFLAG (52-151) (Homo sapiens, UniProt P01116, G12R); experiment: Raf1-KRAS G12R-GppNHP disruption HTRF assay (Biological Example 1); assay type: binding
T2 construct: Avi-KRAS G12R (1-169)
In short: as §1

[3] = target: T3, Avi-KRAS G12V (1-169) GppNHp/RAF1 RBD-3xFLAG (52-151) (Homo sapiens, UniProt P01116, G12V); experiment: Raf1-KRAS G12V-GppNHP disruption HTRF assay (Biological Example 1); assay type: binding
T3 construct: Avi-KRAS G12V (1-169)
In short: as §1

[4] = target: T4, Avi-KRAS WT (1-169) GppNHp/RAF1 RBD-3xFLAG (52-151) (Homo sapiens, UniProt P01116); experiment: Raf1-KRAS WT-GppNHP disruption HTRF assay (Biological Example 1); assay type: binding
T4 construct: Avi-KRAS WT (1-169)
In short: as §1

[5] = tested on: GP2d cells (KRAS G12D); experiment: Cell-based pERK HTRF assay in GP2d cell (Biological Example 2); details: GP2d (KRAS G12D) cells, pERK HTRF
In short: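 Treatment with test compounds lasted one hour in DMEM containing 10% FBS, with DMSO held at 0.25%. Dilution series: 9 points, half-log spacing, highest 1 μM or 100 nM. Lysates were incubated 4–24 h at room temperature with antibody mix, then HTRF was read at 320 nm excitation.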

[6] = tested on: SW620 cells (KRAS G12V); experiment: Cell-based pERK HTRF assay in SW620 cell (Biological Example 4); details: pERK HTRF
In short: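 SW620 cells were treated for 4 h with compound in a 9-point half-log series from 1 μM top (0.25% DMSO), then lysed. Phospho-ERK was detected by HTRF with d2 and Eu cryptate antibodies after 4–24 h at room temperature, read at 615 nm emission.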

[7] = Homo sapiens, SW-620, SW620 (KRAS G12V) cells
[8] = KRAS G12D, GppNHp-loaded, class symbols
[9] = KRAS G12R, GppNHp-loaded, class symbols
[10] = KRAS G12V, GppNHp-loaded, class symbols
[11] = KRAS WT, GppNHp-loaded, class symbols
[12] = Homo sapiens, SW-620, SW620 (KRAS G12V) cells, class symbols
[13] = KRAS G12D, GppNHp-loaded, Table 11
[14] = KRAS G12R, GppNHp-loaded, Table 11
[15] = KRAS G12V, GppNHp-loaded, Table 11
[16] = KRAS WT, GppNHp-loaded, Table 11

T4 sequence (P01116 1-169 isoform P01116-2): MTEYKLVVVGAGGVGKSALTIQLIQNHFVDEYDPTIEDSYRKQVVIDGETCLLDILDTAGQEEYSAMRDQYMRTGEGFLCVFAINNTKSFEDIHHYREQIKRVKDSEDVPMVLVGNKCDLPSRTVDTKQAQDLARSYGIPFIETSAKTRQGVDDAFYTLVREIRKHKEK
T2 sequence (P01116 1-169 isoform P01116-2 G12R): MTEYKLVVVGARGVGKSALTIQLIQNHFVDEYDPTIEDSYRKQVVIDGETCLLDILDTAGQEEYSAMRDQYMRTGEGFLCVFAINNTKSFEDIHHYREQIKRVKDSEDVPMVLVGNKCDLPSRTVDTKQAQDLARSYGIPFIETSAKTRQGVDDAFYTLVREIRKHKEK
T1 sequence (P01116 1-169 isoform P01116-2 G12D): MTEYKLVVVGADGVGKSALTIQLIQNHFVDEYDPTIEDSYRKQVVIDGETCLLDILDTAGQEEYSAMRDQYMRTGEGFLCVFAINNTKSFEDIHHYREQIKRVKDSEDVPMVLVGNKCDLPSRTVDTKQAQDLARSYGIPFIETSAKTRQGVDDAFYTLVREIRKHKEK
T3 sequence (P01116 1-169 isoform P01116-2 G12V): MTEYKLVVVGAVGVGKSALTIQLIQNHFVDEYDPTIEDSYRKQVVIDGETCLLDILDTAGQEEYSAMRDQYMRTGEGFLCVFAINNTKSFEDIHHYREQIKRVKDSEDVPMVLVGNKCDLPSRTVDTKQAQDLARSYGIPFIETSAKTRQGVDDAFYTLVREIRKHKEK

| Compound | IC50 ([1]; KRAS G12D-GppNHp/RAF1 RBD HTRF) | IC50 ([2]; KRAS G12R-GppNHp/RAF1 RBD HTRF) | IC50 ([3]; KRAS G12V-GppNHp/RAF1 RBD HTRF) | IC50 ([4]; KRAS WT-GppNHp/RAF1 RBD HTRF) | IC50 ([5]; GP2d) | IC50 [6, 7] | IC50 [1, 8] | IC50 [2, 9] | IC50 [3, 10] | IC50 [4, 11] | IC50 ([5]; GP2d, class symbols) | IC50 [6, 12] | also measured |
| --- | --- | --- | --- | --- | --- | --- | --- | --- | --- | --- | --- | --- | --- |
| CCC(=O)N1CC[C@@](C)(N(C)c2nc(OC[C@@]34CCCN3C[C@H](F)C4)nc3c(F)c(-c4ccc(F)c5sc(N)c(C#N)c45)c(C(F)(F)F)cc23)[C@H]1C [Compound 343] | 1000 to 10000 nM | > 10000 nM | 1000 to 10000 nM | 1000 to 10000 nM | 100 to 1000 nM | 100 to 1000 nM |  |  |  |  |  |  |  |
| CN(c1nc(OC[C@@]23CCCN2C[C@H](F)C3)nc2c(F)c(-c3ccc(F)c4sc(N)c(C#N)c34)c(C(F)(F)F)cc12)[C@H]1CCS(=O)(=O)C1 (single isomer, unassigned) [Compound 221] |  |  |  |  |  |  |  |  |  |  |  |  | IC50 [1, 13]: 100 to 1000 nM; IC50 [2, 14]: 100 to 1000 nM; IC50 [3, 15]: 100 to 1000 nM; IC50 [4, 16]: 100 to 1000 nM; IC50 [5]: < 100 nM; IC50 ([6]; SW620 (KRAS G12V) cells): < 100 nM |
| CC(=O)N1C[C@@H](F)[C@H](N(C)c2nc(OC[C@@]34CCCN3C[C@H](F)C4)nc3c(F)c(-c4ccc(F)c5sc(N)c(C#N)c45)c(C(F)(F)F)cc23)C1 [Compound 186] |  |  |  |  | < 100 nM | 100 to 1000 nM |  |  |  |  |  |  | IC50 [1, 13]: 100 to 1000 nM; IC50 [2, 14]: 100 to 1000 nM; IC50 [3, 15]: 100 to 1000 nM; IC50 [4, 16]: 100 to 1000 nM |
| C[C@@H]1[C@H](N(C)c2nc(OC[C@@]34CCCN3C[C@H](F)C4)nc3c(F)c(-c4ccc(F)c5sc(N)c(C#N)c45)c(Cl)cc23)CCN1C(=O)C(C)(C)F [Compound 421] | 1000 to 10000 nM | 1000 to 10000 nM | 1000 to 10000 nM | 1000 to 10000 nM | 100 to 1000 nM | 100 to 1000 nM |  |  |  |  |  |  |  |

Continued, in another order:

| IC50 ([1]; KRAS G12D-GppNHp/RAF1 RBD HTRF) | IC50 ([2]; KRAS G12R-GppNHp/RAF1 RBD HTRF) | IC50 ([3]; KRAS G12V-GppNHp/RAF1 RBD HTRF) | IC50 ([4]; KRAS WT-GppNHp/RAF1 RBD HTRF) | IC50 ([5]; GP2d) | IC50 [6, 7] | IC50 [1, 8] | IC50 [2, 9] | IC50 [3, 10] | IC50 [4, 11] | IC50 ([5]; GP2d, class symbols) | IC50 [6, 12] | Compound | also measured |
| --- | --- | --- | --- | --- | --- | --- | --- | --- | --- | --- | --- | --- | --- |
|  |  |  |  |  |  | < 100 nM | < 100 nM | < 100 nM | < 100 nM | < 100 nM | < 100 nM | CCN(c1nc(OC[C@@]23CCCN2C[C@H](F)C3)nc2c(F)c(-c3ccc(F)c4sc(N)c(C#N)c34)c(C(F)(F)F)cc12)[C@H]1C[C@H]2CCOC(=O)N2C1 (atropisomer, axis not shown) [Compound 664] |  |
| 1000 to 10000 nM | 100 to 1000 nM | 1000 to 10000 nM | 1000 to 10000 nM | < 100 nM | < 100 nM |  |  |  |  |  |  | CC(C)C(=O)N1C[C@@H](N(C)c2nc(OC[C@@]34CCCN3C[C@H](F)C4)nc3c(F)c(-c4ccc(F)c5sc(N)c(C#N)c45)c(C(F)(F)F)cc23)C[C@@H]1C [Compound 436] |  |
|  |  |  |  |  |  | < 100 nM | < 100 nM | < 100 nM | < 100 nM | < 100 nM | < 100 nM | CCN(c1nc(OC[C@@]23CCCN2C[C@H](F)C3)nc2c(F)c(-c3ccc(F)c4sc(N)c(C#N)c34)c(C(F)(F)F)cc12)[C@H]1CCN(C(=O)c2ccn(C)n2)C1 (atropisomer, axis not shown) [Compound 724] |  |
|  |  |  |  |  |  | < 100 nM | < 100 nM | < 100 nM | < 100 nM | < 100 nM | < 100 nM | CCN(c1nc(OC[C@@]23CCCN2C[C@H](F)C3)nc2c(F)c(-c3ccc(F)c4sc(N)c(C#N)c34)c(C(F)(F)F)cc12)[C@H]1CCN(C(=O)N2CC(OC)C2)[C@@H]1C (atropisomer, axis not shown) [Compound 761] |  |
| 100 to 1000 nM | 100 to 1000 nM | 100 to 1000 nM | 100 to 1000 nM | < 100 nM | < 100 nM |  |  |  |  |  |  | CCN(c1nc(OC[C@@]23CCCN2C[C@H](F)C3)nc2c(F)c(-c3ccc(F)c4sc(N)c(C#N)c34)c(C(F)(F)F)cc12)[C@H]1C[C@H](C)N(C(=O)C(C)C)C1 [Compound 471] |  |
|  |  |  |  |  |  | < 100 nM | < 100 nM | < 100 nM | < 100 nM | < 100 nM | < 100 nM | CCN(c1nc(OC[C@@]23CCCN2C[C@H](F)C3)nc2c(F)c(-c3ccc(F)c4sc(N)c(C#N)c34)c(C(F)(F)F)cc12)[C@H]1CCN(C(=O)N2CC3C(C2)C3(F)F)C1 (stereo partly drawn) [Compound 657] |  |
